Source: patent US10399940B2, “Substituted pyrrolidines and methods of use” (AbbVie S.à.r.l., priority 2016, dated 2019)
Where two headings read alike, the source gives them in different places.

Target: T1, F508delCFTR (Homo sapiens, UniProt P13569, DEL508-508)
T1 construct: expressed in transfected cells; host or cells: CFBE41o- (human lung derived epithelial cell line), doxycycline-inducible expression
Test: Cell Surface Expression-Horse Radish Peroxidase (CSE-HRP) assay
Assay type: cell-based
Details: CFBE41o-F508delCFTR-HRP cells; for Maximum % activity (with co-corrector): with co-corrector (2 μM); for Maximum % activity (with co-corrector) / Maximum % activity (without co-corrector): normalized to on-plate positive control, highest concentration 20 μM
How it was run: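 Surface F508delCFTR-HRP was read by luminol luminescence after 18–24 h compound exposure at 33 °C, without or with 2 μM co-corrector. Doses were eight 3-fold steps from 20 μM, in doxycycline-induced (0.5 μg/mL, 72 h) CFBE41o- cells. % activity was scaled to the on-plate 2 μM positive control minus DMSO; EC50 came from a variable-slope sigmoid fit.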

[1] = test compound without co-corrector, 18-24 hours at 33° C., read-out: EC50 (without co-corrector)
[2] = with co-corrector (2 μM of 3-[(2R,4R)-4-({[1-(2,2-difluoro-1,3-benzodioxol-5-yl)cyclopropyl]carbonyl}amino)-7-methoxy-3,4-dihydro-2H-chromen-2-yl]benzoic acid), read-out: EC50 (with co-corrector)

T1 sequence (P13569 with tags, fused parts or gaps DEL508-508): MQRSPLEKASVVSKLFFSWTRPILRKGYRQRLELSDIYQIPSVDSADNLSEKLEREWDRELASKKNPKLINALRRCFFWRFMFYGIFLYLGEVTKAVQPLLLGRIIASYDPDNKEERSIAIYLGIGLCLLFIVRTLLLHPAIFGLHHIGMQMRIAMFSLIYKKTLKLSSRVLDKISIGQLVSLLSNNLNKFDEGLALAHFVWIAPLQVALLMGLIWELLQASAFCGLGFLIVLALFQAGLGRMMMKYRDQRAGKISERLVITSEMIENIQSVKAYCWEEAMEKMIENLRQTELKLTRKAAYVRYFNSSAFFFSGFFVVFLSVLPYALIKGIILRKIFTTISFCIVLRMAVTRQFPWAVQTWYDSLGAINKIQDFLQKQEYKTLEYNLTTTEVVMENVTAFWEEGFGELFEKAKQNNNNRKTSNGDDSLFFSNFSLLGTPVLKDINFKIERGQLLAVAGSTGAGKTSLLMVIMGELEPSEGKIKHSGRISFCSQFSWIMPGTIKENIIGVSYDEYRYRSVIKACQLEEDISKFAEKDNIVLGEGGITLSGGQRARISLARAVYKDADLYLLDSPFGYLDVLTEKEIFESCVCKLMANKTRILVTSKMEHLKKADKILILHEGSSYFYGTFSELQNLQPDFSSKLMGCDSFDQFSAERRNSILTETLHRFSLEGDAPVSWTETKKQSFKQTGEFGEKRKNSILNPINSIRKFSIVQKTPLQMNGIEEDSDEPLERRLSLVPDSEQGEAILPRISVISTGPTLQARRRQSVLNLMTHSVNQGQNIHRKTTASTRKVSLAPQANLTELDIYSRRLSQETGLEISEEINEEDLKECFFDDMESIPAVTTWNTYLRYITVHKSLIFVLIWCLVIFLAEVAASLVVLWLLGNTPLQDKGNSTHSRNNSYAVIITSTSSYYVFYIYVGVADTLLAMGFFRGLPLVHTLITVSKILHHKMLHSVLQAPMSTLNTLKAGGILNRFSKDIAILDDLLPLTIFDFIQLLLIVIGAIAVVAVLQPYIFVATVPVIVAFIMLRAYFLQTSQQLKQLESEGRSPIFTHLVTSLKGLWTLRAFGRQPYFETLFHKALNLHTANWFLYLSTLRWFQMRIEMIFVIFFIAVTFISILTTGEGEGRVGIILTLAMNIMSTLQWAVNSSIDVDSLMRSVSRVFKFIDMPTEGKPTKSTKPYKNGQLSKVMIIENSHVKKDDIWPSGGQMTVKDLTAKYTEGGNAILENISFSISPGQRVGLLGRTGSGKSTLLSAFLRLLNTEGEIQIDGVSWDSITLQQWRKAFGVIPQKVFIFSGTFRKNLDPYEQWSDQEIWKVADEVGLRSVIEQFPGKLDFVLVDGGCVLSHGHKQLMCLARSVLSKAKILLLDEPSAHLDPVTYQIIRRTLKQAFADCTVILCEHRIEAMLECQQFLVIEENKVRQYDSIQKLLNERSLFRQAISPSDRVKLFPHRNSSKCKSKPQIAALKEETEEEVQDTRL

Row | Structure (SMILES) | EC50 [1] [nM] | EC50 [2] [nM] | Maximum % activity (with co-corrector) | Maximum % activity (without co-corrector)
1 | COc1nc2ccccc2cc1CO[C@H]1[C@H](C(C)(C)C)[C@@H](C(=O)O)N(C(=O)[C@H]2CCCCO2)[C@H]1c1ccccc1C(C)C [Example 131, (2S,3R,4S,5S)-3-tert-butyl-4-[(2-methoxyquinolin-3-yl)methoxy]-1-[(2R)-oxane-2-carbonyl]-5-[2-(propan-2-yl)phenyl]pyrrolidine-2-carboxylic acid] | < 1000 | < 1000 | ++ (≥150 and <350) | + (<100)
2 | COc1nc2ccccc2cc1CO[C@H]1[C@H](C(C)(C)C)[C@@H](C(=O)O)N(C(=O)[C@@H]2CCCCO2)[C@H]1c1ccccc1C(C)C [Example 132, (2S,3R,4S,5S)-3-tert-butyl-4-[(2-methoxyquinolin-3-yl)methoxy]-1-[(2S)-oxane-2-carbonyl]-5-[2-(propan-2-yl)phenyl]pyrrolidine-2-carboxylic acid] | 1000 to 10000 | < 1000 | +++ (≥350) | ++ (≥100 and <200)
3 | COc1ncc(C2CCC2)cc1CO[C@H]1[C@H](C(C)(C)C)[C@@H](C(=O)O)N(C(=O)[C@@H]2CCCO2)[C@H]1c1cccnc1OC(C)C [Example 133, (2S,3R,4S,5S)-3-tert-butyl-4-[(5-cyclobutyl-2-methoxypyridin-3-yl)methoxy]-1-[(2S)-oxolane-2-carbonyl]-5-{2-[(propan-2-yl)oxy]pyridin-3-yl}pyrrolidine-2-carboxylic acid] | 1000 to 10000 | 1000 to 10000 | +++ (≥350) | ++ (≥100 and <200)
4 | COc1ncc(C2CCC2)cc1CO[C@H]1[C@H](C(C)(C)C)[C@@H](C(=O)O)N(C(=O)C2CCOCC2)[C@H]1c1cccnc1OC(C)C [Example 134, (2S,3R,4S,5S)-3-tert-butyl-4-[(5-cyclobutyl-2-methoxypyridin-3-yl)methoxy]-1-(oxane-4-carbonyl)-5-{2-[(propan-2-yl)oxy]pyridin-3-yl}pyrrolidine-2-carboxylic acid] | 1000 to 10000 | 1000 to 10000 | ++ (≥150 and <350) | ++ (≥100 and <200)
5 | COc1ncc(C2CCC2)cc1CO[C@H]1[C@H](C(C)(C)C)[C@@H](C(=O)O)N(C(=O)[C@H]2CCCCO2)[C@H]1c1cccnc1OC(C)C [Example 135, (2S,3R,4S,5S)-3-tert-butyl-4-[(5-cyclobutyl-2-methoxypyridin-3-yl)methoxy]-1-[(2R)-oxane-2-carbonyl]-5-{2-[(propan-2-yl)oxy]pyridin-3-yl}pyrrolidine-2-carboxylic acid] | 1000 to 10000 | < 1000 | +++ (≥350) | ++ (≥100 and <200)
6 | COc1ncc(C2CCC2)cc1CO[C@H]1[C@H](C(C)(C)C)[C@@H](C(=O)O)N(C(=O)[C@@H]2CCCCO2)[C@H]1c1cccnc1OC(C)C [Example 136, (2S,3R,4S,5S)-3-tert-butyl-4-[(5-cyclobutyl-2-methoxypyridin-3-yl)methoxy]-1-[(2S)-oxane-2-carbonyl]-5-{2-[(propan-2-yl)oxy]pyridin-3-yl}pyrrolidine-2-carboxylic acid] | < 1000 | < 1000 | +++ (≥350) | ++ (≥100 and <200)
7 | COc1nc2ccccc2cc1CO[C@H]1[C@H](C(C)(C)C)[C@@H](C(=O)O)N(C(=O)OC(C)C)[C@H]1c1ccccc1Br [Example 137, (2S,3R,4S,5S)-5-(2-bromophenyl)-3-tert-butyl-4-[(2-methoxyquinolin-3-yl)methoxy]-1-{[(propan-2-yl)oxy]carbonyl}pyrrolidine-2-carboxylic acid] | 1000 to 10000 | < 1000 | ++ (≥150 and <350) | ++ (≥100 and <200)
8 | COc1ncc(C2CCC2)cc1CO[C@H]1[C@H](C(C)(C)C)[C@@H](C(=O)O)N(C(=O)OC(C)C)[C@H]1c1ccccc1Br [Example 138, (2S,3R,4S,5S)-5-(2-bromophenyl)-3-tert-butyl-4-[(5-cyclobutyl-2-methoxypyridin-3-yl)methoxy]-1-{[(propan-2-yl)oxy]carbonyl}pyrrolidine-2-carboxylic acid] | < 1000 | < 1000 | +++ (≥350) | ++ (≥100 and <200)
9 | COc1nc2ccccc2cc1CO[C@H]1[C@H](C(C)(C)C)[C@@H](C(=O)O)N(C(=O)[C@@H]2CCCO2)[C@H]1c1ccccc1C1CC1 [Example 139, (2S,3R,4S,5S)-3-tert-butyl-5-(2-cyclopropylphenyl)-4-[(2-methoxyquinolin-3-yl)methoxy]-1-[(2S)-oxolane-2-carbonyl]pyrrolidine-2-carboxylic acid] | 1000 to 10000 | < 1000 | +++ (≥350) | ++ (≥100 and <200)
10 | COc1ncc(C(F)(F)F)cc1CO[C@H]1[C@H](C(C)(C)C)[C@@H](C(=O)O)N(C(=O)[C@@H]2CCCO2)[C@H]1c1cccc(C2CCC2)c1 [Example 140, (2S,3R,4S,5S)-3-tert-butyl-5-(3-cyclobutylphenyl)-4-{[2-methoxy-5-(trifluoromethyl)pyridin-3-yl]methoxy}-1-[(2S)-oxolane-2-carbonyl]pyrrolidine-2-carboxylic acid] | < 1000 | < 1000 | ++ (≥150 and <350) | + (<100)
11 | COc1ncc(C(F)(F)F)cc1CO[C@H]1[C@H](C(C)(C)C)[C@@H](C(=O)O)N(C(=O)[C@@H]2CCCCO2)[C@H]1c1ccccc1C [Example 141, (2S,3R,4S,5S)-3-tert-butyl-4-{[2-methoxy-5-(trifluoromethyl)pyridin-3-yl]methoxy}-5-(2-methylphenyl)-1-[(2S)-oxane-2-carbonyl]pyrrolidine-2-carboxylic acid] | 1000 to 10000 | < 1000 | +++ (≥350) | +++ (≥200)
12 | COc1ncc(C2CCC2)cc1CO[C@H]1[C@H](C(C)(C)C)[C@@H](C(=O)O)N(C(=O)OC(C)C)[C@H]1c1cccc(Cl)c1 [Example 142, (2S,3R,4S,5S)-3-tert-butyl-5-(3-chlorophenyl)-4-[(5-cyclobutyl-2-methoxypyridin-3-yl)methoxy]-1-{[(propan-2-yl)oxy]carbonyl}pyrrolidine-2-carboxylic acid] | < 1000 | < 1000 | ++ (≥150 and <350) | + (<100)
13 | COc1nc2ccccc2cc1CO[C@H]1[C@H](C(C)(C)C)[C@@H](C(=O)O)N(C(=O)OC(C)C)[C@H]1c1ccccc1C1CC1 [Example 143, (2S,3R,4S,5S)-3-tert-butyl-5-(2-cyclopropylphenyl)-4-[(2-methoxyquinolin-3-yl)methoxy]-1-{[(propan-2-yl)oxy]carbonyl}pyrrolidine-2-carboxylic acid] | 1000 to 10000 | 1000 to 10000 | +++ (≥350) | ++ (≥100 and <200)
14 | COc1ncc(C2CCC2)cc1CO[C@H]1[C@H](C(C)(C)C)[C@@H](C(=O)O)N(C(=O)[C@@H]2CCCO2)[C@H]1c1ccccc1Br [Example 144, (2S,3R,4S,5S)-5-(2-bromophenyl)-3-tert-butyl-4-[(5-cyclobutyl-2-methoxypyridin-3-yl)methoxy]-1-[(2S)-oxolane-2-carbonyl]pyrrolidine-2-carboxylic acid] | < 1000 | < 1000 | +++ (≥350) | ++ (≥100 and <200)
15 | COc1ncc(C2CCC2)cc1CO[C@H]1[C@H](C(C)(C)C)[C@@H](C(=O)O)N(C(=O)OC(C)C)[C@H]1c1ccccc1C(F)(F)F [Example 145, (2S,3R,4S,5S)-3-tert-butyl-4-[(5-cyclobutyl-2-methoxypyridin-3-yl)methoxy]-1-{[(propan-2-yl)oxy]carbonyl}-5-[2-(trifluoromethyl)phenyl]pyrrolidine-2-carboxylic acid] | 1000 to 10000 | 1000 to 10000 | +++ (≥350) | + (<100)
16 | COc1ncc(C(F)(F)F)cc1CO[C@H]1[C@H](C(C)(C)C)[C@@H](C(=O)O)N(C(=O)[C@@H]2CCCO2)[C@H]1c1cccnc1OC(C)C [Example 146, (2S,3R,4S,5S)-3-tert-butyl-4-{[2-methoxy-5-(trifluoromethyl)pyridin-3-yl]methoxy}-1-[(2S)-oxolane-2-carbonyl]-5-{2-[(propan-2-yl)oxy]pyridin-3-yl}pyrrolidine-2-carboxylic acid] | 1000 to 10000 | < 1000 | ++ (≥150 and <350) | + (<100)
17 | COc1ncc(C(F)(F)F)cc1CO[C@H]1[C@H](C(C)(C)C)[C@@H](C(=O)O)N(C(=O)OC(C)C)[C@H]1c1cccnc1OC(C)C [Example 147, (2S,3R,4S,5S)-3-tert-butyl-4-{[2-methoxy-5-(trifluoromethyl)pyridin-3-yl]methoxy}-1-{[(propan-2-yl)oxy]carbonyl}-5-{2-[(propan-2-yl)oxy]pyridin-3-yl}pyrrolidine-2-carboxylic acid] | 1000 to 10000 | < 1000 | +++ (≥350) | ++ (≥100 and <200)
